This is an account of results in patent US12060347B2 (BRISTOL-MYERS SQUIBB COMPANY, priority 2016, dated 2024).

The assay concerns the target T1, human PAR4 (Homo sapiens, UniProt Q96RI0).
T1 construct: expressed in transfected cells; host or cells: HEK293 PAR4 Clone 1.2A (BMS Arctic ID 383940)
T1 sequence (Q96RI0 18-385): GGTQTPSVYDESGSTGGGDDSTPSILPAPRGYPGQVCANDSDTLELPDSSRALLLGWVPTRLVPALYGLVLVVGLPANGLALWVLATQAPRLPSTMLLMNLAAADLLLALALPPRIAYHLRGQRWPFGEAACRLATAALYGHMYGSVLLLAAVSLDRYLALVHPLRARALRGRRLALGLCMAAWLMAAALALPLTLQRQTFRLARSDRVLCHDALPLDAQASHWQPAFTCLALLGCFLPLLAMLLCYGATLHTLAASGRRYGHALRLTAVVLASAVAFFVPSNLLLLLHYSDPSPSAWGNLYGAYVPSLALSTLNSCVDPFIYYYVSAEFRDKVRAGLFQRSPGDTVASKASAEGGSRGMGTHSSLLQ
As to the kind of experiment: PAR4 FLIPR assay: antagonism of agonist-peptide-induced calcium mobilization in PAR4-expressing HEK293 cells. As to conditions: H-Ala-Phe(4-F)-[…]NH2-induced intracellular calcium mobilization, 11-point curves. The format is cell-based. For orientation: Calcium flux is commonly read through the fluorescence of an indicator in the cells.

What is called IC50 is the concentration that inhibits the measured activity by half. As for `COCc1cnc2c(-c3nc4c(Cl)cc(OC)c(F)c4s3)cc(C)cc2n1` [Example 265, 4-chloro-7-fluoro-6-methoxy-2-(2-(methoxymethyl)-7-methylquinoxalin-5-yl)benzo[d]thiazole], the IC50 is 6.8 nM.

For `COCc1cnc2c(-c3nc4c(C)cc(OC)cc4s3)cc(F)cc2n1` [Example 206, 2-(7-fluoro-2-(methoxymethyl)quinoxalin-5-yl)-6-methoxy-4-methylbenzo[d]thiazole], the concentration for half-maximal inhibition (IC50) turned out to be 0.7 nM.

Take `COc1cnc2c(-c3nc4cc(F)c(O[C@@H](C)[C@@H](C)OC(=O)Nc5cnc(C)nc5)cc4s3)cc(OC)cc2c1` [Example 657, (2R,3S)-3-((2-(3,6-dimethoxyquinolin-8-yl)-5-fluorobenzo[d]thiazol-6-yl)oxy)butan-2-yl (2-methylpyrimidin-5-yl)carbamate]: the IC50 was found to be 1.1 nM.

With `COc1cnc2c(-c3nc4cc(F)c(O[C@@H](C)[C@@H](C)OC(=O)Nc5ccc(C)nc5)cc4s3)cc(C)cc2n1` [Example 405, (2R,3S)-3-((5-fluoro-2-(2-methoxy-7-methylquinoxalin-5-yl)benzo[d]thiazol-6-yl)oxy)butan-2-yl (6-methylpyridin-3-yl)carbamate], the 50% inhibitory concentration (IC50) stood at 1.9 nM.

Take `COCc1cnc2c(-c3nc4c(C)cc(OC)cc4s3)nc(C)cc2c1` [Example 153, 6-methoxy-2-(3-(methoxymethyl)-6-methyl-1,7-naphthyridin-8-yl)-4-methylbenzo[d]thiazole]: the IC50 came out at 16 nM.

With `COc1cnc2c(-c3nc4cc(F)c(O[C@@H](C)[C@@H](C)OC(=O)Nc5cnc(N6CCOCC6)nc5)cc4s3)cc(C)cc2n1` [Example 608, (2R,3S)-3-((5-fluoro-2-(2-methoxy-7-methylquinoxalin-5-yl)benzo[d]thiazol-6-yl)oxy)butan-2-yl (2-morpholinopyrimidin-5-yl)carbamate], the IC50 is 0.5 nM.

Consider `COCc1cnc2c(-c3nc4c(C)c(F)c(OCCO)cc4s3)cc(C)cc2n1` [Example 289, 2-((5-fluoro-2-(2-(methoxymethyl)-7-methylquinoxalin-5-yl)-4-methylbenzo[d]thiazol-6-yl)oxy)ethanol], for which the IC50 was 1.3 nM.

For the molecule `COc1cnc2c(-c3nc4c(C)cc(OCCNS(=O)(=O)c5ccc(F)cc5)cc4s3)cc(CO)cc2n1` [Example 235, 4-fluoro-N-(2-((2-(7-(hydroxymethyl)-2-methoxyquinoxalin-5-yl)-4-methylbenzo[d]thiazol-6-yl)oxy)ethyl)benzenesulfonamide], the half-inhibitory concentration (IC50) was 2.2 nM.

For `COC(=O)c1ccc(NC(=O)O[C@H](C)[C@H](C)Oc2nc3sc(-c4cc(C)cc5nc(OC)cnc45)nc3cc2F)cn1` [Example 715, methyl 5-(((((2R,3S)-3-((6-fluoro-2-(2-methoxy-7-methylquinoxalin-5-yl)thiazolo[5,4-b]pyridin-5-yl)oxy)butan-2-yl)oxy)carbonyl)amino)picolinate], the IC50 stood at 0.9 nM.

On to `COc1cnc2c(-c3nc4cc(F)c(OC)cc4s3)cc(CO)cc2n1` [Example 222, (8-(5-fluoro-6-methoxybenzo [d]thiazol-2-yl)-3-methoxyquinoxalin-6-yl)methanol], for which the IC50 was 1 nM.

In the case of `COC(=O)NCCOc1cccc2nc(-c3cc(C)cc4nc(OC(F)F)cnc34)sc12` [Example 69, Methyl 2-(2-(2-(difluoromethoxy)-7-methylquinoxalin-5-yl)benzo[d]thiazol-7-yloxy)ethylcarbamate], the IC50 was determined as 36 nM.

With `COCc1cnc2c(-c3nc4c(C(C)O)cc(OC)cc4s3)cc(C)cc2n1` (centres unmarked) [Example 156, 1-(6-methoxy-2-(2-(methoxymethyl)-7-methylquinoxalin-5-yl)benzo[d]thiazol-4-yl) ethanol], the IC50 was 1.4 nM.

With `COCc1cnc2c(-c3nc4c(C)c(F)c(O)cc4s3)cc(C)cc2n1` [Example 290, 5-fluoro-2-(2-(methoxymethyl)-7-methylquinoxalin-5-yl)-4-methylbenzo[d] thiazol-6-ol], the IC50 worked out at 6 nM.

On to `COc1cnc2c(-c3nc4cc(F)c(O[C@@H](C)[C@@H](C)OC(=O)Nc5cnc(C(=O)NCCO)nc5)cc4s3)cc(C)cc2n1` [Example 455, (2R,3S)-3-((5-fluoro-2-(2-methoxy-7-methylquinoxalin-5-yl)benzo[d]thiazol-6-yl)oxy)butan-2-yl (2-((2-hydroxyethyl)carbamoyl)pyrimidin-5-yl)carbamate], for which the IC50 was 0.8 nM.

For the molecule `COc1cnc2c(-c3nc4cc(F)c(OC[C@@H](C)OC(=O)Nc5ccc(C(N)=O)nc5)cc4s3)cc(C)cc2n1` [Example 434, (R)-1-((5-fluoro-2-(2-methoxy-7-methylquinoxalin-5-yl)benzo[d]thiazol-6-yl)oxy)propan-2-yl (6-carbamoylpyridin-3-yl)carbamate], the half-maximal inhibitory concentration (IC50) was found to be 1.4 nM.

In the case of `COc1cnc2c(-c3nc4cc(F)c(OC[C@@H](C)OC(=O)Nc5ccc6[nH]c(=O)oc6c5)cc4s3)cc(C)cc2n1` [Example 350, (R)-1-((5-fluoro-2-(2-methoxy-7-methylquinoxalin-5-yl)benzo[d]thiazol-6-yl)oxy)propan-2-yl (2-oxo-2,3-dihydrobenzo[d]oxazol-6-yl)carbamate], the concentration for half-maximal inhibition (IC50) amounted to 2.8 nM.

Regarding `COc1cnc2c(-c3nc4c(C)cc(OCCOC(=O)Nc5cnc(Cl)nc5)cc4s3)cc(C)cc2n1` [Example 119, 2-((2-(2-methoxy-7-methylquinoxalin-5-yl)-4-methylbenzo[d]thiazol-6-yl)oxy)ethyl (2-chloropyrimidin-5-yl)carbamate], the IC50 is 16 nM.

`COc1cnc2c(-c3nc4cc(F)c(O[C@@H](C)[C@@H](C)OC(=O)Nc5ccc(C)nc5)nc4s3)cc(C)cc2n1` [Example 710, (2R,3S)-3-((6-fluoro-2-(2-methoxy-7-methylquinoxalin-5-yl)thiazolo[5,4-b]pyridin-5-yl)oxy)butan-2-yl (6-methylpyridin-3-yl)carbamate]: the IC50 worked out at 1.8 nM.

On to `COc1cnc2c(-c3nc4cc(F)c(O[C@@H](C)[C@@H](C)OC(=O)Nc5ccc(C(=O)N6CCOC[C@@H]6CO)nc5)cc4s3)cc(C)cc2n1` [Example 487, (2R,3S)-3-((5-fluoro-2-(2-methoxy-7-methylquinoxalin-5-yl)benzo[d]thiazol-6-yl)oxy)butan-2-yl (6-((S)-3-(hydroxymethyl)morpholine-4-carbonyl)pyridin-3-yl)carbamate], for which the IC50 was found to be 1.3 nM.

Turning to `COCc1cnc2c(-c3nc4ccc(OCCNS(=O)(=O)c5ccc(F)cc5)cc4s3)cc(C)cc2n1` [Example 107, 4-fluoro N-(2-(2-(2-(methoxymethyl)-7-methylquinoxalin-5-yl)benzo[d]thiazol-6-yloxy)ethyl)benzenesulfonamide], the IC50 is 2.8 nM.

In the case of `COc1cnc2c(-c3nc4cc(F)c(OC[C@@H](C)OC(=O)Nc5ccc(C(=O)NC[C@H](C)O)nc5)cc4s3)cc(C)cc2n1` [Example 450, (R)-1-((5-fluoro-2-(2-methoxy-7-methylquinoxalin-5-yl)benzo[d]thiazol-6-yl)oxy)propan-2-yl (6-(((S)-2-hydroxypropyl)carbamoyl)pyridin-3-yl)carbamate], the IC50 was found to be 0.5 nM.

For the molecule `COCc1cnc2c(-c3nc4c(Cl)cncc4s3)cc(C)cc2n1` [Example 149, 7-chloro-2-(2-(methoxymethyl)-7-methylquinoxalin-5-yl)thiazolo[5,4-c]pyridine], the IC50 is 4.2 nM.

Regarding `Cc1cc(-c2nc3cc(F)c(O[C@@H](C)[C@@H](C)OC(=O)Nc4cnc(C)nc4)cc3s2)c2ncc(C(=O)NCCO)nc2c1` [Example 616, (2R,3S)-3-((5-fluoro-2-(2-((2-hydroxyethyl)carbamoyl)-7-methylquinoxalin-5-yl)benzo[d]thiazol-6-yl)oxy)butan-2-yl (2-methylpyrimidin-5-yl)carbamate], the IC50 worked out at 4200 nM.

As for `COCc1cnc2c(-c3nc4c(C)cc(OCCNS(=O)(=O)c5ccc(F)cc5)cc4s3)cc(C(N)=O)cc2n1` [Example 225, 8-(6-(2-(4-fluorophenylsulfonamido)ethoxy)-4-methylbenzo[d]thiazol-2-yl)-3-(methoxymethyl)quinoxaline-6-carboxamide], the IC50 is 54 nM.

For the molecule `Cc1cc(-c2nc3ncccc3s2)c2ncc(OC(F)F)nc2c1` [Example 9, 2-(2-(difluoromethoxy)-7-methylquinoxalin-5-yl)thiazolo[4,5-b]pyridine], the IC50 came to 220 nM.

Consider `COc1cnc2c(-c3nc4cc(F)c(OCCOC(=O)Nc5ccc(C#N)nc5)nc4s3)cc(C)cc2n1` [Example 198, 2-((6-fluoro-2-(2-methoxy-7-methylquinoxalin-5-yl)thiazolo[5,4-b]pyridin-5-yl)oxy)ethyl (6-cyanopyridin-3-yl)carbamate], for which the IC50 was determined as 0.6 nM.

On to `COCc1cc(OC)cc2sc(-c3cc(C)cc4nc(OC)cnc34)nc12` [Example 808, 6-methoxy-2-(2-methoxy-7-methylquinoxalin-5-yl)-4-(methoxymethyl)benzo[d]thiazole], for which the IC50 was 2 nM.

For the molecule `COc1cnc2c(-c3cc4cc(OC)c(F)cc4o3)cc(CO)cc2n1` [Example 125, (8-(6-fluoro-5-methoxybenzofuran-2-yl)-3-methoxyquinoxalin-6-yl)methanol], the IC50 turned out to be 2 nM.

On to `COCc1cnc2c(-c3nc4c(C(O)CC(F)(F)F)cc(OC)cc4s3)cc(C)cc2n1` (centres unmarked) [Example 173, 3,3,3-trifluoro-1-(6-methoxy-2-(2-(methoxymethyl)-7-methylquinoxalin-5-yl)benzo[d]thiazol-4-yl)propan-1-ol], for which the IC50 was found to be 2.7 nM.
